The target in experiment [1] is T1, Doublecortin-like kinase 1 (DCLK1) (Homo sapiens, UniProt O15075).
T1 sequence (O15075 1-740): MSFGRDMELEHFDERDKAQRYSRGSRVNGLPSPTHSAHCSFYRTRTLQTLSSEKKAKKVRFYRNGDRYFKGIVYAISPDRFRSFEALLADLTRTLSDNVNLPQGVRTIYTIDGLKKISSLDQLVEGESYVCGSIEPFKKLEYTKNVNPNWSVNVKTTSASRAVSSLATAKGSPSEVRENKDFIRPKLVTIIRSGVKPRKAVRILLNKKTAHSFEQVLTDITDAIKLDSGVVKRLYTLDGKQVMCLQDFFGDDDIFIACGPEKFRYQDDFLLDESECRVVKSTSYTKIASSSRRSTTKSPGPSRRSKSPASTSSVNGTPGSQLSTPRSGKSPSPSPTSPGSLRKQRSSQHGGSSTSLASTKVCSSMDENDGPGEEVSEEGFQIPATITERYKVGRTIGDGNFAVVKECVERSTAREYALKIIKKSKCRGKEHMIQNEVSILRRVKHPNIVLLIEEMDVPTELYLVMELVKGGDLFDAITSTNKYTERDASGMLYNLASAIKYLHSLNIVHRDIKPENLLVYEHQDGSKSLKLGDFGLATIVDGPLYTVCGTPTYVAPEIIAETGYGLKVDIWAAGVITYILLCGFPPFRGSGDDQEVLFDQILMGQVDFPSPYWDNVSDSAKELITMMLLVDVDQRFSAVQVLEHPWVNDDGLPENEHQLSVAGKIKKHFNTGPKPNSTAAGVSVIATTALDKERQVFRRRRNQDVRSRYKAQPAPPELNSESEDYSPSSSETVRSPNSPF
Put plainly: in vitro kinase assay (Kinase-Glo luminescence) with purified active DCLK1, autocamtide II substrate and […] ATP. The experiment is classed as biochemical. In general terms: Kinase-Glo measures the ATP left after a reaction by luminescence.

The next experiment relates to DLD-1. Put plainly: cells. Details: MTT proliferation assay, sigmoidal dose-response fit, colon and pancreatic cancer cell lines. Particulars: Homo sapiens, DLD-1; 48 h MTT.
For the next experiment, the system named is HT-29. Put plainly: cells. Details: MTT proliferation assay, sigmoidal dose-response fit, colon and pancreatic cancer cell lines. To be noted: Homo sapiens, HT-29; 48 h MTT.
For the next experiment, the system named is MiaPaCa-2. Put plainly: cells. Details: MTT proliferation assay, sigmoidal dose-response fit, colon and pancreatic cancer cell lines. Particulars: Homo sapiens, MIA PaCa-2; 48 h MTT.
Another experiment relates to SW1990. Put plainly: cells. Details: MTT proliferation assay, sigmoidal dose-response fit, colon and pancreatic cancer cell lines. To be noted: Homo sapiens, SW1990; 48 h MTT.

Consider one compound from publication PMC4030036, “Small molecule kinase inhibitor LRRK2-IN-1 demonstrates potent activity against colorectal and pancreatic cancer through inhibition of doublecortin-like kinase 1” (Molecular Cancer, 2014).

Consider `COc1cc(C(=O)N2CCC(N3CCN(C)CC3)CC2)ccc1Nc1ncc2c(n1)N(C)c1ccccc1C(=O)N2C` [LRRK2-IN-1], for which the half-inhibitory concentration (IC50) (commonly the concentration that gives 50% inhibition) amounted to 2.61 nM in experiment [1]; 3220 nM with DLD-1; 2070 nM with HT-29; 2010 nM in the experiment with MiaPaCa-2; 5190 nM in the experiment with SW1990.
